Patent US11256170B2, “Compound, resist composition, and method for forming resist pattern using it” (Mitsubishi Gas Chemical Company, Inc., priority 2015, dated 2022)

Experiment: Safe solvent solubility test of compound
Format: physicochemical
Details: for Safe solvent CHN (solubility) / Safe solvent PGME (solubility) / Safe solvent PGMEA (solubility): 23° C., ultrasonic waves 30 minutes, visual; for solubility in safe solvents (in words): summary of Table 1
Procedure: The solubilities of the compound in CHN, PGME, and PGMEA were evaluated according to the following criteria utilizing the amount of dissolution in each solvent. The amount of dissolution was measured at 23° C. by precisely weighing the compound into a test tube, adding a subject solvent so as to attain a predetermined concentration, applying ultrasonic waves for 30 minutes in an ultrasonic cleaner, and visually observing the subsequent state of the fluid.
A: 5.0% by mass≤Amount of dissolution
B: 3.0% by mass≤Amount of dissolution<5.0% by mass
C: Amount of dissolution<3.0% by mass

| SMILES | Safe solvent CHN (solubility) | Safe solvent PGME (solubility) | Safe solvent PGMEA (solubility) | solubility in safe solvents (in words) |
| --- | --- | --- | --- | --- |
| COc1cc(C2c3c(ccc4cc(OC(=O)OC(C)(C)C)ccc34)Oc3ccc4cc(OC(=O)OC(C)(C)C)ccc4c32)cc(I)c1OC(=O)OC(C)(C)C [Compound A-3-BOC] | A (5.0% by mass≤Amount of dissolution) | A (5.0% by mass≤Amount of dissolution) | B (3.0% by mass≤Amount of dissolution<5.0% by mass) | good solubility |
| COc1cc(C2c3c(ccc4cc(OCC(=O)OC(C)(C)C)ccc34)Oc3ccc4cc(OCC(=O)OC(C)(C)C)ccc4c32)cc(I)c1OCC(=O)OC(C)(C)C [Compound A-3-MeBOC] | A (5.0% by mass≤Amount of dissolution) | A (5.0% by mass≤Amount of dissolution) | A (5.0% by mass≤Amount of dissolution) | good solubility |
| CC(C)(C)OC(=O)OCc1ccc2ccc3c(c2c1)C(c1cccc(I)c1)c1c(ccc2ccc(COC(=O)OC(C)(C)C)cc12)O3 [Compound B-1-MeBOC] | A (5.0% by mass≤Amount of dissolution) | A (5.0% by mass≤Amount of dissolution) | A (5.0% by mass≤Amount of dissolution) | good solubility |
| CC(C)(C)OC(=O)Oc1ccc2c3c(ccc2c1)Oc1ccc2cc(OC(=O)OC(C)(C)C)ccc2c1C3c1ccc(-c2ccccc2)cc1 [XBisN-1-BOC, reference compound] | A (5.0% by mass≤Amount of dissolution) | B (3.0% by mass≤Amount of dissolution<5.0% by mass) | A (5.0% by mass≤Amount of dissolution) | good solubility |

The next lines start with the values.

| Safe solvent CHN (solubility) | Safe solvent PGME (solubility) | Safe solvent PGMEA (solubility) | solubility in safe solvents (in words) | SMILES |
| --- | --- | --- | --- | --- |
| A (5.0% by mass≤Amount of dissolution) | A (5.0% by mass≤Amount of dissolution) | A (5.0% by mass≤Amount of dissolution) | good solubility | CC(C)(C)OC(=O)Oc1ccc2c3c(ccc2c1)Oc1ccc2cc(OC(=O)OC(C)(C)C)ccc2c1C3c1cccc(I)c1 [Compound A-1-BOC] |
| A (5.0% by mass≤Amount of dissolution) | A (5.0% by mass≤Amount of dissolution) | A (5.0% by mass≤Amount of dissolution) | good solubility | CC(C)(C)OC(=O)COc1ccc2c3c(ccc2c1)Oc1ccc2cc(OCC(=O)OC(C)(C)C)ccc2c1C3c1cccc(I)c1 [Compound A-1-MeBOC] |
| A (5.0% by mass≤Amount of dissolution) | A (5.0% by mass≤Amount of dissolution) | A (5.0% by mass≤Amount of dissolution) | good solubility | CC(C)(C)OC(=O)Oc1ccc2ccc3c(c2c1)C(c1cccc(I)c1)c1c(ccc2ccc(OC(=O)OC(C)(C)C)cc12)O3 [Compound B-1-BOC] |
